Laboratory results published in patent US20050053916A1, “Diagnostic for long term response of HBV carrier to 3TC therapy” (priority 2002, published 2005).
“And” between values parts separate entries of the source, which are not always exact repeats. Equal entries are not always repeated. “Also recorded” adds a separate entry of the source.

Experiments:
HBV [1] = assay: Virological response (serum HBV DNA, HBV Monitor PCR) in chronic hepatitis B patients on long-term lamivudine therapy; format: in vivo, human; conditions: for virologic breakthrough observed, number of patients: of 12 breakthrough patients
From the text: (§1) All patients had detectable HBV DNA by polymerase chain reaction (PCR) assay (HBV Monitor, Roche Diagnostics, Inc.) and by solution hybridization assay (Abbott Diagnostics, Inc.) at baseline and for at least 6 months before therapy. […] Patients were negative for hepatitis C, hepatitis D, or human immunodeficiency virus antibodies, and there were no evidences of autoimmune hepatitis.
(§2) All patients were followed with monthly clinical examination and routine laboratory tests.
Serum HBV DNA for the evaluation of response to treatment was analyzed by the HBV Monitor™ assay (Roche Diagnostic, Inc.) with a detection limit of 100 copies/ml, and a solution hybridization assay (Abbott Laboratories, Inc.) with a detection limit of 10 pg/ml.
(§3) Definitions—“Responder” patients were classified as attaining both a biochemical and virological response: normalization of ALT values and the absence of serum HBV DNA by Monitor™ PCR in two consecutive determinations during treatment. “Breakthrough” was defined as those patients in who HBV DNA reappeared by Monitor™ PCR assay after an initial antiviral response (serum HBV DNA negative by Monitor™ PCR), eventually associated with an increase of ALT levels greater than 1.5× the upper limit of normal (35 IU/L).

[2] = system: serum alanine transaminase (ALT); assay: Biochemical response (serum ALT) in chronic hepatitis B patients on long-term lamivudine therapy; format: in vivo, human; conditions: for No. of patients with ALT elevation / No. of patients with Sustained ALT Normalization: outcome summary
Procedure: as §1, with “hepatitis. None of the patients were treated with interferon or other antiviral agents, such as famciclovir or adefovir dipovoxil, during the study or within six months before the beginning of lamivudine treatment.” for “hepatitis.”
as §2
Blood test—An aliquot of serum was collected at each visit and stored at −70° C. until used for analysis.
HBV serologic markers were tested by commercial enzyme immunoassay kits: HBeAg and anti-HBeAg (DiaSorin, Italy), and HBsAg (Abbott Laboratories, Inc.). Serum samples were also evaluated for routine biochemical markers of liver disease, including ALT.
as §3

HBV [3] = conditions: after 16 weeks or more of treatment; HBeAg positive candidates; cited from earlier work
[4] = after a minimum of 27 months of therapy, 26 patients
[5] = individual breakthrough (BK) patients, row order Pt #4, 5, 8, 10, 12, 13, 16, 17, 19, 20, 24, 26, 27-53 months of treatment
[6] = individual non-responder (NR) patients, row order Pt #3, 6, 9, 11, 15, 21, 22, 33-47 months of treatment

Nc1ccn([C@@H]2CS[C@H](CO)O2)c(=O)n1 [lamivudine]
virologic breakthrough observed, number of patients (HBV [1]; after 12 months of therapy): 6 patients
patients who were breakthroughs (HBV [1]; [4]): 46%
patients who were non-responders (HBV [1]; [4]): 27%
patients who were responders (HBV [1]; [4]): 27%
virologic breakthrough observed, number of patients (HBV [1]; between 12 and 18 months of therapy): 5 patients
patients in whom HBV DNA became undetectable (HBV [1]; by week 24 of treatment, 19 of 26 patients, lamivudine orally 100 mg daily): 73%
HBV DNA (log10/ml), treatment (last follow up) (HBV [1]; [5]): 5.00 log10/ml and 5.31 log10/ml and 5.17 log10/ml and 6.20 log10/ml and 5.67 log10/ml and 6.62 log10/ml and 5.88 log10/ml and 4.54 log10/ml and 6.08 log10/ml and 7.02 log10/ml and 6.18 log10/ml
HBV DNA (log10/ml), treatment (last follow up) (HBV [1]; [6]): 4.25 log10/ml and 4.55 log10/ml and 6.11 log10/ml (2×) and 7.28 log10/ml and 5.19 log10/ml and 6.19 log10/ml
HBV DNA (log10/ml), treatment (last follow up) (HBV [1]; individual responder (R) patients, row order Pt #1, 2, 7, 14, 18, 23, 25, 27-50 months of treatment): ud* (undetectable, limit of detection 1000 copies/ml); also recorded: ud (undetectable, limit of detection 1000 copies/ml)
No. of Patients (%), Breakthrough (HBV [1]; outcome summary (26 pts)): 12 (46%)
No. of Patients (%), Non-responder (HBV [1]; outcome summary (26 pts)): 7 (27%)
No. of Patients (%), Responder (HBV [1]; outcome summary (26 pts)): 7 (27%)
patients in whom serum ALT normalized ([2]; by week 24 of treatment, 13 of 26 patients, lamivudine orally 100 mg daily): 50%
ALT (IU/L), treatment (last follow up) [2, 5]: 9 IU/L (2×) and 5 IU/L (3×) and 21 IU/L and 75 IU/L and 81 IU/L and 51 IU/L and 80 IU/L and 2 IU/L and 4 IU/L
ALT (IU/L), treatment (last follow up) [2, 6]: 68 IU/L and 37 IU/L and 4 IU/L (2×) and 66 IU/L and 74 IU/L and 85 IU/L
ALT (IU/L), treatment (last follow up) ([2]; individual responder (R) patients, row order Pt #1, 2, 7, 14, 18, 23, 25, 27-50 months of treatment, upper limit of normal 35 IU/L): 30 IU/L and 24 IU/L (2×) and 20 IU/L and 18 IU/L and 21 IU/L and 16 IU/L
No. of patients with ALT elevation ([2]; Breakthrough group (12 pts)): 5
No. of patients with Sustained ALT Normalization ([2]; Breakthrough group (12 pts)): 7
No. of patients with ALT elevation ([2]; Non-responder group (7 pts)): 7
No. of patients with Sustained ALT Normalization ([2]; Non-responder group (7 pts)): 0
No. of patients with ALT elevation ([2]; Responder group (7 pts)): 7
No. of patients with Sustained ALT Normalization ([2]; Responder group (7 pts)): 0

interferon-alpha
individuals who lose serum HBeAg (HBV [3]): about 40%
